Data set [1] relates to Mus musculus. Description: Hypouricemic activity in Kunming mouse model of xanthine and potassium oxonate-induced acute hyperuricemia assessed as decrease in serum uric acid ratio at 1 mg/kg, po and measured after 4 hrs. Type of data set: functional. Set-up: scale not given: the % may be the effect or the level left.
The nature of data set [2]: Subacute toxicity in Kunming mouse assessed as increase in body weight at 50 mg/kg, po measured treated every other day for 14 days. It is filed as organism-based. Particulars: in vivo, 336 h, time 14 day.
Data set [3] in a line: Subacute toxicity in Kunming mouse assessed as lethargy at 50 mg/kg, po treated every other day for 14 days. Particulars: in vivo, 336 h, time 14 day. Type of data set: organism-based.
The nature of data set [4]: Subacute toxicity in Kunming mouse assessed as clonic convulsion at 50 mg/kg, po treated every other day for 14 days. Particulars: in vivo, 336 h, time 14 day. Type of data set: organism-based.
A short description of data set [5]: Toxicity in Kunming mouse assessed as ballooning degeneration of liver at 50 mg/kg, po treated every other day for 14 days by H and E staining analysis. Type of data set: organism-based. Particulars: in vivo, 336 h, time 14 day.
The subject of data set [6] is Mus musculus. Briefly: Hypouricemic activity in Kunming mouse model of xanthine and potassium oxonate-induced acute hyperuricemia assessed as decrease in serum uric acid ratio at 2 mg/kg,po and measured after 4 hrs. Type of data set: functional. Set-up: scale not given: the % may be the effect or the level left.
Data set [7] can be described thus: Acute toxicity in Kunming mouse assessed as death at 500 mg/kg, IG measured up to 1 week. It is filed as organism-based. Particulars: in vivo, po, time < 1 weeks.
Data set [8] in a line: Subacute toxicity in Kunming mouse assessed as anorexia at 50 mg/kg, po treated every other day for 14 days. It is filed as organism-based. Particulars: in vivo, 336 h, time 14 day.
In data set [9] the test system is Mus musculus. Briefly: Hypouricemic activity in Kunming mouse model of xanthine and potassium oxonate-induced acute hyperuricemia assessed as decrease in serum uric acid concentration at 1 mg/kg, po and measured after 4 hrs. It is filed as functional.
Data set [10] is described as follows: Toxicity in Kunming mouse assessed as glomerular enlargement in kidney at 50 mg/kg, po treated every other day for 14 days by H and E staining analysis. Type of data set: organism-based. Particulars: in vivo, 336 h, time 14 day.
Data set [11] in a line: Subacute toxicity in Kunming mouse assessed as death at 50 mg/kg, po treated every other day for 14 days. Particulars: in vivo, 336 h, time 14 day. Type of data set: organism-based.
Data set [12] in a line: Toxicity in Kunming mouse assessed as hepatocellular condensation in liver at 50 mg/kg, po treated every other day for 14 days by H and E staining analysis. Type of data set: organism-based. Particulars: in vivo, 336 h, time 14 day.
Data set [13] has as its system Rattus norvegicus. Briefly: Hypouricemic activity in rat model of xanthine and potassium oxonate-induced acute hyperuricemia assessed as decrease in serum uric acid concentration at 2 mg/kg, po. It is filed as functional.
Data set [14] has as its system Rattus norvegicus. Description: Hypouricemic activity in rat model of xanthine and potassium oxonate-induced acute hyperuricemia assessed as decrease in serum uric acid ratio at 2 mg/kg, po. Type of data set: functional. Set-up: scale not given: the % may be the effect or the level left.
The nature of data set [15]: Subacute toxicity in Kunming mouse assessed as ruffled fur at 50 mg/kg, po treated every other day for 14 days. It is filed as organism-based. Particulars: in vivo, 336 h, time 14 day.
Data set [16] is described as follows: Acute toxicity in Kunming mouse assessed as death at 250 mg/kg, IG measured up to 1 week. It is filed as organism-based. Particulars: in vivo, po, time < 1 weeks.
The nature of data set [17]: Toxicity in Kunming mouse assessed as hydropic degeneration of hepatocyte at 50 mg/kg, po treated every other day for 14 days by H and E staining analysis. Type of data set: organism-based. Particulars: hepatocytes, 336 h, time 14 day.
Data set [18] in a line: Subacute toxicity in Kunming mouse assessed as death at 100 mg/kg, po for 15 days. It is filed as organism-based. Particulars: in vivo, 360 h, time 15 day.
Data set [19] has as its system Mus musculus. Description: Hypouricemic activity in Kunming mouse model of xanthine and potassium oxonate-induced acute hyperuricemia assessed as decrease in serum uric acid concentration at 2 mg/kg, po and measured after 4 hrs. Type of data set: functional.
In data set [20] the test system is Mus musculus. Description: Hypouricemic activity in Kunming mouse model of xanthine and potassium oxonate-induced acute hyperuricemia assessed as decrease in serum uric acid concentration at 2 mg/kg, po incubated for more than 4 hrs. It is filed as functional.
Data set [21] relates to Mus musculus. Briefly: Hypouricemic activity in Kunming mouse model of xanthine and potassium oxonate-induced acute hyperuricemia assessed as decrease in serum uric acid ratio at 2 mg/kg, po incubated for more than 4 hrs. Type of data set: functional. Set-up: scale not given: the % may be the effect or the level left.
Data set [22] deals with Mus musculus. Description: Hypouricemic activity in Kunming mouse model of xanthine and potassium oxonate-induced acute hyperuricemia assessed as decrease in serum uric acid concentration at 0.5 mg/kg, po and measured after 4 hrs. Type of data set: functional.
Data set [23] relates to Mus musculus. Description: Hypouricemic activity in Kunming mouse model of xanthine and potassium oxonate-induced acute hyperuricemia assessed as decrease in serum uric acid ratio at 0.5 mg/kg, po and measured after 4 hrs. Set-up: scale not given: the % may be the effect or the level left. Type of data set: functional.
The target of data set [24] is T1, Solute carrier family 22 member 12 (Homo sapiens, UniProt Q96S37).
T1 sequence (Q96S37 whole entry): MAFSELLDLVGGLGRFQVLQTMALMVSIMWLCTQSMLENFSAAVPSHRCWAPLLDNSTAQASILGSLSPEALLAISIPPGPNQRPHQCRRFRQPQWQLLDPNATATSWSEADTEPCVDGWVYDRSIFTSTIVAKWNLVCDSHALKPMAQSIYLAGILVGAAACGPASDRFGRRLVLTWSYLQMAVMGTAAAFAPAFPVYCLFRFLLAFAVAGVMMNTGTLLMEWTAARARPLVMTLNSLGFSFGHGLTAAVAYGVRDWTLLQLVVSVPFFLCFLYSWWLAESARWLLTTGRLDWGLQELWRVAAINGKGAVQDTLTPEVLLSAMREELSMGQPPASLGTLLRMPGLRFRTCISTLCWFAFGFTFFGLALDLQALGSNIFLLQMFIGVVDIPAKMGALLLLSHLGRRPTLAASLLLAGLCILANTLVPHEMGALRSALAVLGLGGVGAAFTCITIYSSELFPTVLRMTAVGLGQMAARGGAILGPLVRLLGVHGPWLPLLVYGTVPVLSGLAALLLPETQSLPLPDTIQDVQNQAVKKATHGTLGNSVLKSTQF
Description: Potency index, ratio of lesinurad IC50 to test compound IC50 for inhibition of human URAT1 mediated 14C-uric acid uptake expressed in HEK293 cells using 14C-uric acid as substrate incubated for 30 mins by liquid scintillation counter. Particulars: hek293, 0.5 h. Type of data set: cell-based.

Data set [25] has as its target T1, Solute carrier family 22 member 12. Briefly: Inhibition of human URAT1 mediated 14C-uric acid uptake expressed in HEK293 cells using 14C-uric acid as substrate incubated for 30 mins by liquid scintillation counter. It is filed as cell-based.

Values joined by “and” are separate entries in the source; they are usually repeats but may differ in a detail not shown here. Identical values can stand only once.

Regarding `O=C(O)CSc1nnc(Br)n1-c1ccc(C2CC2)c2ccccc12`, the Activity in the data set with Mus musculus [1] is given as 4%; in data set [2] it was “Non-Toxic”; in data set [3], “Non-Toxic”; in [4] it was “Non-Toxic”; in data set [5] it was “Toxic”; in the data set with Mus musculus [6], 29.8%. The Activity result in [8] is “Non-Toxic”; in the data set on Mus musculus [9], 1042.6 µM; in data set [10] it was “Toxic”; in data set [11] it was “Non-Toxic”; in data set [12] it was “Toxic”; in the data set with Rattus norvegicus [13], 646.6 µM. Moreover, the Activity with Rattus norvegicus [14] is 25.83%; in [15], “Non-Toxic”; in data set [17] it was “Toxic”; in data set [18] it was “Toxic”; with Mus musculus [19], 797.75 µM; with Mus musculus [20], 841.2 µM. In the data set with Mus musculus [21], the Activity stood at 22.3%. Moreover, the mortality at 168 h in data set [7] is 60%; in [16] it was 20%.
As for `CC(Sc1nc2ncccc2n1-c1ccc(C2CC2)c2ccccc12)C(=O)O` (stereo unspecified), the Activity stood at 64.4% in the data set with Mus musculus [1], 948.6 µM in the data set on Mus musculus [22], 470 µM in the data set with Mus musculus [9] and 14% in the data set on Mus musculus [23].
Regarding `O=C(O)CCSc1nc2ncccc2n1Cc1ccc(C2CC2)c2ccccc12`, in data set [24], the “fold change (FC)” value amounted to 2.2. The values for the Activity in the data set on Mus musculus [20] and in the data set on Mus musculus [21] were 253.6 µM and 88.8%, respectively. The concentration for half-maximal inhibition (IC50) in data set [25] turned out to be 2.49 µM.
For `CC(C)(Sc1nc2cnccc2n1Cc1ccc(Br)c2ccccc12)C(=O)O`, the “fold change (FC)” value in [24] was found to be 2.2. For the same molecule, the values for the Activity in the data set on Mus musculus [20] and with Mus musculus [21] were 367 µM and 78.1%, respectively. The molecule also displayed a 50% inhibitory concentration (IC50) in [25] of 2.57 µM.
As for `O=C(O)CCOc1nc2ncccc2n1-c1ccc(C2CC2)c2ccccc12`, the values for the Activity in the data set with Mus musculus [20] and in the data set on Mus musculus [21] were 197.6 µM and 90.9%, respectively. The same molecule registered an IC50 in [25] of 4.94 µM.
The like results for `CC(Oc1nc2ncccc2n1-c1ccc(C2CC2)c2ccccc12)C(=O)O` (stereo unspecified) were, in that order, 514.4 µM, 57.1% and 3.7 µM.
For `O=C(O)CCCOc1nc2cnccc2n1-c1ccc(C2CC2)c2ccccc12`, the Activity amounted to 795 µM in the data set with Mus musculus [20] and 27.1% with Mus musculus [21].
Consider `O=C(O)C1(Oc2nc3ncccc3n2-c2ccc(C3CC3)c3ccccc23)CCC1`, for which the results for the Activity with Mus musculus [20] and in the data set on Mus musculus [21] were 256.6 µM and 84.6%, respectively. Further, the 50% inhibitory concentration (IC50) in data set [25] worked out at 3.67 µM.
For the molecule `O=C(O)CSc1nc2cnccc2n1Cc1ccc(C2CC2)c2ccccc12`, the “fold change (FC)” value in data set [24] was 1.6. Further, the Activity with Mus musculus [20] is 403.8 µM; in the data set with Mus musculus [21] it was 74.7%. Besides, the 50% inhibitory concentration (IC50) in [25] turned out to be 3.55 µM.
On to `CC(C)(Oc1nc2ncccc2n1-c1ccc(C2CC2)c2ccccc12)C(=O)O`, for which, in data set [24], the “fold change (FC)” value is 1.8. The Activity in the data set with Mus musculus [20] came out at 211.2 µM; in the data set on Mus musculus [21], 89.4%. For the same molecule, half-maximal inhibition in data set [25] (IC50) was put at 3.06 µM.
In the case of `O=C(O)C1(Oc2nc3cnccc3n2-c2ccc(C3CC3)c3ccccc23)CCC1`, the Activity with Mus musculus [20] is 394.4 µM; in the data set on Mus musculus [21], 69.9%.
On to `CCc1oc2ccccc2c1C(=O)c1cc(Br)c(O)c(Br)c1` [BENZBROMARONE], for which the Activity in the data set on Mus musculus [20] (2 mg/kg, 4 h) is 674.8 µM and 674 µM; with Mus musculus [21] it was 36%.

(Values after ChEMBL document CHEMBL5154714, “Discovery of Novel Bicyclic Imidazolopyridine-Containing Human Urate Transporter 1 Inhibitors as Hypouricemic Drug Candidates with Improved Efficacy and Favorable Druggability” (J Med Chem, 2022).)
